Measurements from patent US20160046618A1, “Cyclopropyl Fused Thiazin-2-Amine Compounds as Beta-Secretase Inhibitors and Methods of Use” (AMGEN INC., priority 2014, published 2016).

How the values were obtained:
[1] = molecular target: human recombinant BACE1 (Homo sapiens (Human), UniProt P56817); experiment: In vitro enzymatic BACE1 FRET assay; type: biochemical; details: read-out: IC50 IP (μM) BACE1 enzyme
Summary of the method: (§1)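 Ni-NTA-purified recombinant enzyme incubated 1 h with 50 nM FRET peptide substrate (fluorophore and quencher flanking the BACE cleavage site). Reaction stopped with Tris buffer raising pH to neutrality; cleavage-released fluorescence read at ex 488/em 590 nm.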

[2] = test system: Aβ40 in conditioned medium of cells stably expressing Amyloid Precursor Protein (APP); experiment: In vitro BACE-1 cell-based assay (Aβ40 sandwich ELISA); details: read-out: IC50 IP (μM) BACE1 cell
Summary of the method: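 APP-stable cells, pre-cultured 24 h at 37° C in DMEM/10% FBS, were treated 24 h with compound in a 10-point series starting at 100 μM or 10 μM (0.1% DMSO final). Secreted Aβ40 in conditioned medium was measured by pAb40/biotin-6E10 sandwich ELISA with Europium time-resolved fluorescence; IC50 from percent inhibition versus concentration.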

[3] = molecular target: Recombinant Cat D (Homo sapiens (Human), UniProt P07339); experiment: In vitro enzymatic Cathepsin D (Cat D) FRET assay; type: biochemical; details: read-out: IC50 IP (μM) CatD
Summary of the method: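 Fluorescence at 500 nm excitation and 580 nm emission reports cleavage of a quenched fluorophore–quencher peptide (20 nM) by CHO-expressed Cat D. Reactions ran one hour in 0.05 M citrate pH 3.5, 5 mM CHAPS, 10% DMSO final before a Tris stop raised pH to neutrality.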

[4] = molecular target: human recombinant BACE2 (Homo sapiens (Human), UniProt Q9Y5Z0); experiment: In vitro enzymatic BACE2 FRET assay; type: biochemical; details: read-out: IC50 IP (μM) BACE2 enzyme
Summary of the method: as §1

Chain of human recombinant BACE1 (P56817 46-501): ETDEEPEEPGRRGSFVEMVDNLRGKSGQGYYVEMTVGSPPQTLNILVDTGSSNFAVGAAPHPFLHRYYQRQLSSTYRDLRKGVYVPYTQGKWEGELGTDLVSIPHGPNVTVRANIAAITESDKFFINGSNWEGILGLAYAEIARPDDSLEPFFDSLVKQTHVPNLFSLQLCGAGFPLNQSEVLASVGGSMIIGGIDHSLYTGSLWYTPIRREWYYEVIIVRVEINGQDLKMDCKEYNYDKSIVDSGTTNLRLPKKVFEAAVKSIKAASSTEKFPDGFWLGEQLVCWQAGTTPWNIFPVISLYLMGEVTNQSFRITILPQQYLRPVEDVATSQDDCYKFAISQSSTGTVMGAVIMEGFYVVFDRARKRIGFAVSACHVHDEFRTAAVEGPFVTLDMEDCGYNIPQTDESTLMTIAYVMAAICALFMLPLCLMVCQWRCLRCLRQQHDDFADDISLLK
Chain of Recombinant Cat D (P07339 65-412): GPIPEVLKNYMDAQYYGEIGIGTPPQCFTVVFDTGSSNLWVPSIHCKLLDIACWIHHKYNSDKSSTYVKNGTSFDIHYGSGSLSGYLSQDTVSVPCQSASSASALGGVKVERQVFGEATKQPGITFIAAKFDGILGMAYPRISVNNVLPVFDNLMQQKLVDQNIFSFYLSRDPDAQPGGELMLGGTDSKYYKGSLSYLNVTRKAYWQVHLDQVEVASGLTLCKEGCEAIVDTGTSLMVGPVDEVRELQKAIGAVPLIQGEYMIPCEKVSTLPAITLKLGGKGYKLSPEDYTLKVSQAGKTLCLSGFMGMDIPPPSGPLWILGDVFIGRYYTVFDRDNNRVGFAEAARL
Chain of human recombinant BACE2 (Q9Y5Z0 63-518): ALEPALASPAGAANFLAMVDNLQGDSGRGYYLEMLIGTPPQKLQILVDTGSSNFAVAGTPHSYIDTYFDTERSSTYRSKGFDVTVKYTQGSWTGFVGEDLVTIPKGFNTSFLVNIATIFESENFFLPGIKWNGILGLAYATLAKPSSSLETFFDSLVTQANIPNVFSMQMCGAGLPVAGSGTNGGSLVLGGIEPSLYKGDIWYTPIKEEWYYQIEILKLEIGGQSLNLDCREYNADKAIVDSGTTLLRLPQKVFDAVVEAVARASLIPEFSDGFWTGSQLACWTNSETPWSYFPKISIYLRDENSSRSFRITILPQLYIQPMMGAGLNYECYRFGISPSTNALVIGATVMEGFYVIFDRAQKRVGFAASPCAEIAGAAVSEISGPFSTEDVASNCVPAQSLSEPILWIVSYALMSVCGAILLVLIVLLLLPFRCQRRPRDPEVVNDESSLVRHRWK

| SMILES | IC50 [1] [µM] | IC50 [2] [µM] | IC50 [3] [µM] | IC50 [4] [µM] |
| --- | --- | --- | --- | --- |
| C#CCOc1cnc2c(Nc3ccc(F)c([C@@]4(CF)N=C(N)S[C@@]5(/C=C/C(=O)N(C)C)C[C@H]54)c3)nccc2n1 [Example 768, (2E)-3-((1R,5S,6S)-3-amino-5-(fluoromethyl)-5-(2-fluoro-5-((2-(2-propyn-1-yloxy)pyrido[3,4-b]pyrazin-5-yl)amino)phenyl)-2-thia-4-azabicyclo[4.1.0]hept-3-en-1-yl)-N,N-dimethyl-2-propenamide] | 0.00119 | 0.00113 | 406 | 0.00612 |
| CN(C)C(=O)/C=C/[C@]12C[C@H]1[C@@](CF)(c1cc(Nc3nccc4nc(OCc5ncco5)cnc34)ccc1F)N=C(N)S2 [Example 769, (2E)-3-((1R,5S,6S)-3-amino-5-(fluoromethyl)-5-(2-fluoro-5-((2-(1,3-oxazol-2-ylmethoxy)pyrido[3,4-b]pyrazin-5-yl)amino)phenyl)-2-thia-4-azabicyclo[4.1.0]hept-3-en-1-yl)-N,N-dimethyl-2-propenamide] | 0.00143 | 0.00121 | 224 | 0.023 |
| CC#CCOc1cnc2c(Nc3ccc(F)c([C@@]4(CF)N=C(N)S[C@@]5(/C=C/C(=O)N(C)C)C[C@H]54)c3)nccc2c1 [Example 771, (2E)-3-((1R,5S,6S)-3-amino-5-(5-((3-(2-butyn-1-yloxy)-1,7-naphthyridin-8-yl)amino)-2-fluorophenyl)-5-(fluoromethyl)-2-thia-4-azabicyclo[4.1.0]hept-3-en-1-yl)-N,N-dimethyl-2-propenamide] | 0.00204 | 0.00146 | 282 | 0.0786 |
| C#CCOc1cnc2c(Nc3ccc(F)c([C@@]4(CF)N=C(N)S[C@@]5(/C=C/C(=O)N6CC(F)(F)C6)C[C@H]54)c3)nccc2n1 [Example 773, N-(3-((1R,5S,6S)-3-amino-1-((1E)-3-(3,3-difluoro-1-azetidinyl)-3-oxo-1-propen-1-yl)-5-(fluoromethyl)-2-thia-4-azabicyclo[4.1.0]hept-3-en-5-yl)-4-fluorophenyl)-2-(2-propyn-1-yloxy)pyrido[3,4-b]pyrazin-5-amine] | 0.000423 | 0.00148 | 113 | < 0.00203 |
| CN(C)C(=O)/C=C/[C@]12C[C@H]1[C@@](CF)(c1cc(Nc3ncnc4cc(OCc5ncco5)cnc34)ccc1F)N=C(N)S2 [Example 775, (2E)-3-((1R,5S,6S)-3-amino-5-(fluoromethyl)-5-(2-fluoro-5-((7-(1,3-oxazol-2-ylmethoxy)pyrido[3,2-d]pyrimidin-4-yl)amino)phenyl)-2-thia-4-azabicyclo[4.1.0]hept-3-en-1-yl)-N,N-dimethyl-2-propenamide] | 0.00112 | 0.00323 | 22.8 | 0.0602 |
| C#CCOc1cnc2c(Nc3ccc(F)c([C@@]4(CF)N=C(N)S[C@@]5(/C=C/C(=O)N(C)C)C[C@H]54)c3)ncnc2c1 [Example 776, (2E)-3-((1R,5S,6S)-3-amino-5-(fluoromethyl)-5-(2-fluoro-5-((7-(2-propyn-1-yloxy)pyrido[3,2-d]pyrimidin-4-yl)amino)phenyl)-2-thia-4-azabicyclo[4.1.0]hept-3-en-1-yl)-N,N-dimethyl-2-propenamide] | 0.0012 | 0.00305 | 293 | 0.0264 |
| C#CCOc1cnc2c(Nc3ccc(F)c([C@@]4(CF)N=C(N)S[C@@]5(C(=O)N(C)C)C[C@H]54)c3)nccc2n1 [Example 779, (1S,5S,6S)-3-amino-5-(fluoromethyl)-5-(2-fluoro-5-((2-(2-propyn-1-yloxy)pyrido[3,4-b]pyrazin-5-yl)amino)phenyl)-N,N-dimethyl-2-thia-4-azabicyclo[4.1.0]hept-3-ene-1-carboxamide] | 0.000728 | 0.00082 | > 400 | < 0.00203 |

Now from value to molecule:

| IC50 [1] [µM] | IC50 [2] [µM] | IC50 [3] [µM] | IC50 [4] [µM] | SMILES |
| --- | --- | --- | --- | --- |
| 0.000706 | 0.0011 | 1070 | < 0.00203 | CN(C)C(=O)CC[C@]12C[C@H]1[C@@](CF)(c1cc(NC(=O)c3ccc(Cl)cn3)ccc1F)N=C(N)S2 [Example 765, N-(3-((1S,5S,6S)-3-amino-1-(3-(dimethylamino)-3-oxopropyl)-5-(fluoromethyl)-2-thia-4-azabicyclo[4.1.0]hept-3-en-5-yl)-4-fluorophenyl)-5-chloropicolinamide] |
| 0.00105 | 0.0031 | 848 | < 0.00203 | COC1CN(C(=O)/C=C/[C@]23C[C@H]2[C@@](CF)(c2cc(NC(=O)c4ccc(Cl)cn4)ccc2F)N=C(N)S3)C1 [Example 766, N-(3-((1R,5S,6S)-3-amino-5-(fluoromethyl)-1-((E)-3-(3-methoxyazetidin-1-yl)-3-oxoprop-1-en-1-yl)-2-thia-4-azabicyclo[4.1.0]hept-3-en-5-yl)-4-fluorophenyl)-5-chloropicolinamide] |
| 0.00102 | 0.00143 | 602 | < 0.00203 | COCCNC(=O)/C=C/[C@]12C[C@H]1[C@@](CF)(c1cc(NC(=O)c3ccc(Cl)cn3)ccc1F)N=C(N)S2 [Example 767, N-(3-((1R,5S,6S)-3-amino-5-(fluoromethyl)-1-((E)-3-((2-methoxyethyl)amino)-3-oxoprop-1-en-1-yl)-2-thia-4-azabicyclo[4.1.0]hept-3-en-5-yl)-4-fluorophenyl)-5-chloropicolinamide] |
| 0.000429 | 0.000972 | 82 | < 0.00203 | NC1=N[C@](CF)(c2cc(NC(=O)c3ccc(Cl)cn3)ccc2F)[C@@H]2C[C@]2(/C=C/C(=O)N2CC(F)(F)C2)S1 [Example 772, N-(3-((1R,5S,6S)-3-amino-1-((1E)-3-(3,3-difluoro-1-azetidinyl)-3-oxo-1-propen-1-yl)-5-(fluoromethyl)-2-thia-4-azabicyclo[4.1.0]hept-3-en-5-yl)-4-fluorophenyl)-5-chloro-2-pyridinecarboxamide] |
| 0.000313 | 0.000583 | 7.95 | 0.00575 | C#CCOc1cnc(C(=O)Nc2ccc(F)c([C@@]3(CF)N=C(N)S[C@@]4(/C=C/C(=O)N(C)C)C[C@H]43)c2)cn1 [Example 774, N-(3-((1R,5S,6S)-3-amino-1-((1E)-3-(dimethylamino)-3-oxo-1-propen-1-yl)-5-(fluoromethyl)-2-thia-4-azabicyclo[4.1.0]hept-3-en-5-yl)-4-fluorophenyl)-5-(2-propyn-1-yloxy)-2-pyrazinecarboxamide] |
| 0.000274 | 0.000416 | 834 | < 0.00203 | C/C(=C/[C@]12C[C@H]1[C@@](CF)(c1cc(NC(=O)c3ccc(Cl)cn3)ccc1F)N=C(N)S2)C(=O)N1CCOCC1 [Example 777, N-(3-((1R,5S,6S)-3-amino-5-(fluoromethyl)-1-((Z)-2-methyl-3-morpholino-3-oxoprop-1-en-1-yl)-2-thia-4-azabicyclo[4.1.0]hept-3-en-5-yl)-4-fluorophenyl)-5-chloropicolinamide] |
| 0.00558 | 0.0134 | 557 | 0.0026 | C/C(=C\[C@]12C[C@H]1[C@@](CF)(c1cc(NC(=O)c3ccc(Cl)cn3)ccc1F)N=C(N)S2)C(=O)N1CCOCC1 [Example 778, N-(3-((1R,5S,6S)-3-amino-5-(fluoromethyl)-1-((E)-2-methyl-3-morpholino-3-oxoprop-1-en-1-yl)-2-thia-4-azabicyclo[4.1.0]hept-3-en-5-yl)-4-fluorophenyl)-5-chloropicolinamide] |
